Consider 1 compound from PMC6414696 (mBio, 2019).

Experiment [1] deals with OXA 24/40. The note with it: cited from earlier work.
Experiment [2] relates to OXA-24/40. The note with it: range given jointly for several OXA enzymes; cited from earlier work.
In experiment [3] the target is ADC-7 β-lactamase (Acinetobacter baumannii, UniProt Q6DRA1). The experiment is described as follows: β-Lactamase steady-state kinetic analysis, ADC-7. In kind it is biochemical, A. baumannii.
Experiment [4] deals with OXA-48. The note with it: cited from earlier work.
Experiment [5] addresses T1, OXA-58 β-lactamase (Acinetobacter baumannii, UniProt Q2TR58). Kind of experiment: β-Lactamase steady-state kinetic analysis, OXA-58. In kind it is biochemical, Acinetobacter spp.
Experiment [6] addresses T1, OXA-58 β-lactamase. The experiment is described as follows: OXA-58 acyl-transfer experiment (mass spectrometry), KPC-2 as recipient. Type of experiment: biochemical. The note with it: 10 µM each, 15 s to 24 h.
The test system of experiment [7] is A. baumannii ARC5955. Kind of experiment: Neutropenic murine thigh infection model. Type of experiment: in vivo. The following applies: thigh tissue, CD-1 mice, 24 h after initiation of therapy, 50 mg/kg SC/q3h.
In experiment [8] the test system is OXA-10. The note with it: OXA-10; range given jointly for several OXA enzymes; cited from earlier work.
For experiment [9], the target named is OXA-66 β-lactamase (Acinetobacter baumannii, UniProt Q58XD2). The experiment is described as follows: β-Lactamase steady-state kinetic analysis, OXA-66. In kind it is biochemical, A. baumannii.
Experiment [10] relates to OXA-23. The following applies: range given jointly for several OXA enzymes; cited from earlier work.
The subject of experiment [11] is KPC-2 β-lactamase. The note with it: cited from earlier work.
[12] abbreviates: read-out: koff (residence time).

T1 sequence (Q2TR58 22-280): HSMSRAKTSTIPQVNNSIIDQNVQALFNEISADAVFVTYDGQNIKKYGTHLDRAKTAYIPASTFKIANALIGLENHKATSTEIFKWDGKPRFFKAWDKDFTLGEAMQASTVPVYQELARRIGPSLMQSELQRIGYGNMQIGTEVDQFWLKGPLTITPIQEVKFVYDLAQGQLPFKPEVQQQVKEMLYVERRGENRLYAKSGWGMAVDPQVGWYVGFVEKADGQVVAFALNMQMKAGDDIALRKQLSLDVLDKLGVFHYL
Chain of OXA-66 β-lactamase (Q58XD2 entry or part of it): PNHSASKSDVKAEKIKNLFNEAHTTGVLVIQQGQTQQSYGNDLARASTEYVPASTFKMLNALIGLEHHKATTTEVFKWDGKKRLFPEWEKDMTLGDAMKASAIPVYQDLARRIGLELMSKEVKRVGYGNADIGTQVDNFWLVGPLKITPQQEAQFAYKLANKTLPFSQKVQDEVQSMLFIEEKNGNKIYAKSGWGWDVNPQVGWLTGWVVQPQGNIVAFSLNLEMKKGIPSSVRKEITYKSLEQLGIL

In the case of `CC1=C[C@@H]2CN(C(=O)N2OS(=O)(=O)O)[C@@H]1C(N)=O` [ETX2514], in experiment [1], the IC50 – broadly, the point on the concentration scale where inhibition reaches its midpoint – was 190 nM. The “k2/Ki (acylation rate)” value in experiment [2] and in experiment [10] was 5 to 9 × 10^3 M^−1 s^−1 each time. In addition, the figures for the dissociation constant Kd in experiment [3] and in experiment [5] were 1 ± 0.1 nM and 1 ± 0.2 nM, respectively. Besides, the Ki (commonly a measure of affinity in units of concentration, obtained from inhibition or displacement) in experiment [3] was 110 ± 10 nM; in [5], 390 ± 40 nM; in experiment [9] it was 43000 ± 4000 nM. Further, the kinact/KI came to 1e+06 ± 1e+11 M⁻¹ s⁻¹ in experiment [3] (pH 7.4, read-out: k2/Ki) and 250000 ± 3e+09 M⁻¹ s⁻¹ in experiment [5] (pH 7.4, read-out: k2/Ki). Also, the koff (usually the first-order rate constant of dissociation) is 0.0008 ± 1e-08 s⁻¹ in experiment [3] (setting [12]), 0.00016 s⁻¹ in experiment [5] (setting [12]) and 1.0 ± 0.1 × 10^−3 s^−1 in experiment [11]. For the same compound, the k2/Ki in experiment [4] is 8 ± 2 × 10^5 M^−1 s^−1; in experiment [8], 5 to 9 × 10^3 M^−1 s^−1; in experiment [11], 9.3 ± 0.6 × 10^5 M^−1 s^−1. In addition, the “acyl transfer from acylated OXA-58 to KPC-2” value in experiment [6] was “did not transfer to KPC-2”. Further, the “Log10 CFU/g” value in [7] was found to be 8.8 log10 CFU/g. Moreover, the “Change in log10 CFU/g” value in experiment [7] (50 mg/kg) was 2.2 log10 CFU/g.
